Measurements taken from patent US10875876B2, “Cyclized sulfamoylarylamide derivatives and the use thereof as medicaments for the treatment of hepatitis B” (priority 2015, dated 2020).

Legend:
HBV = assay: anti HBV activity, HepG2.117 cell line, intracellular HBV DNA by realtime PCR; assay type: cell-based; details: Hepatitis B virus, HepG2.117, 72 h, HepG2.117 cell line (Tet-off), 3 days of treatment, intracellular HBV DNA quantified by realtime PCR; read-out: HBV-AVE-HepG2.117 EC50
Outline: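 Readout was intracellular HBV DNA by real-time PCR (HBV-specific primers and probe) after 3 days of compound exposure. Serial dilutions were tested in duplicate on HepG2.117 cells, a stable inducible HBV producer in which replication is switched on when doxycycline is absent.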

[1] = Cytotoxicity in HepG2 cells, Resazurin assay; details: human, HepG2 cells, TOX-HepG2-4 d CC50 (μM), HepG2 cells incubated for 4 days, viability by Resazurin assay

Compound	EC50 (HBV) [nM]	CC50 at 4 days [1] [µM]
CC(C)C1CCc2c(cn(C)c2C(=O)Nc2ccc(F)c(C#N)c2)S(=O)(=O)N1 (stereo not shown) [Compound 85, N-(3-cyano-4-fluoro-phenyl)-3-isopropyl-7-methyl-1,1-dioxo-2,3,4,5-tetrahydropyrrolo[3,4-f]thiazepine-6-carboxamide]	7	> 25
CC(C)C1CCc2c(cn(C)c2C(=O)Nc2ccc(F)c(C(F)F)c2)S(=O)(=O)N1 (stereo not shown) [Compound 86, N-[3-(difluoromethyl)-4-fluoro-phenyl]-3-isopropyl-7-methyl-1,1-dioxo-2,3,4,5-tetrahydropyrrolo[3,4-f]thiazepine-6-carboxamide]	5	> 25
C[C@H](O)[C@H]1C=Cc2c(cn(C)c2C(=O)Nc2ccc(F)c(C#N)c2)S(=O)(=O)N1 [Compound 87, (3R)—N-(3-cyano-4-fluoro-phenyl)-3-[(1S)-1-hydroxyethyl]-7-methyl-1,1-dioxo-2,3-dihydropyrrolo[3,4-f]thiazepine-6-carboxamide]	18	> 25
C[C@H](O)[C@H]1CCc2c(cn(C)c2C(=O)Nc2ccc(F)c(F)c2)S(=O)(=O)N1 [Compound 88, (3R)—N-(3,4-difluorophenyl)-3-[(1S)-1-hydroxyethyl]-7-methyl-1,1-dioxo-2,3,4,5-tetrahydropyrrolo[3,4-f]thiazepine-6-carboxamide]	11	> 25
C[C@H](O)[C@H]1CCc2c(cn(C)c2C(=O)Nc2ccc(F)c(C#N)c2)S(=O)(=O)N1 [Compound 90, (3R)—N-(3-cyano-4-fluoro-phenyl)-3-[(1S)-1-hydroxyethyl]-7-methyl-1,1-dioxo-2,3,4,5-tetrahydropyrrolo[3,4-f]thiazepine-6-carboxamide]	19	> 25
Cn1cc2c(c1C(=O)Nc1ccc(F)c(C#N)c1)OCCNS2(=O)=O [Compound 91, N-(3-cyano-4-fluoro-phenyl)-7-methyl-1,1-dioxo-3,4-dihydro-2H-pyrrolo[3,4-b][1,4,5]oxathiazepine-6-carboxamide]	130	> 25
Cn1cc2c(c1C(=O)Nc1ccc(F)c(F)c1)OC[C@H](C(C)(C)O)NS2(=O)=O [Compound 93, (3R)—N-(3,4-difluorophenyl)-3-(1-hydroxy-1-methyl-ethyl)-7-methyl-1,1-dioxo-3,4-dihydro-2H-pyrrolo[3,4-b][1,4,5]oxathiazepine-6-carboxamide]	12	> 25
Cn1cc2c(c1C(=O)Nc1ccc(F)c(F)c1)OCC(C(O)c1cccnc1)NS2(=O)=O (stereo not shown) [Compound 95, N-(3,4-difluorophenyl)-3-[hydroxy(3-pyridyl)methyl]-7-methyl-1,1-dioxo-3,4-dihydro-2H-pyrrolo[3,4-b][1,4,5]oxathiazepine-6-carboxamide]	22	> 25
C[C@H](O)[C@H]1C=Cc2c(cn(C)c2C(=O)Nc2ccnc(Br)c2)S(=O)(=O)N1 [Compound 97, (3R)—N-(2-bromo-4-pyridyl)-3-[(1S)-1-hydroxyethyl]-7-methyl-1,1-dioxo-2,3-dihydropyrrolo[3,4-f]thiazepine-6-carboxamide]	55	> 25
Cc1cc(NC(=O)c2c3c(cn2C)S(=O)(=O)N[C@@H]([C@H](C)O)C=C3)ccc1F [Compound 99, (3R)—N-(4-fluoro-3-methyl-phenyl)-3-[(1S)-1-hydroxyethyl]-7-methyl-1,1-dioxo-2,3-dihydropyrrolo[3,4-f]thiazepine-6-carboxamide]	4	> 25
Cn1cc2c(c1C(=O)Nc1ccc(F)c(C(F)F)c1)OC[C@H](C(C)(C)O)NS2(=O)=O [Compound 100, (3R)—N-[3-(difluoromethyl)-4-fluoro-phenyl]-3-(1-hydroxy-1-methyl-ethyl)-7-methyl-1,1-dioxo-3,4-dihydro-2H-pyrrolo[3,4-b][1,4,5]oxathiazepine-6-carboxamide]	3	> 25
C[C@H](O)[C@H]1CCc2c(cn(C)c2C(=O)Nc2cc(F)c(F)c(F)c2)S(=O)(=O)N1 [Compound 104, (3R)-3-[(1S)-1-hydroxyethyl]-7-methyl-1,1-dioxo-N-(3,4,5-trifluorophenyl)-2,3,4,5-tetrahydropyrrolo[3,4-f]thiazepine-6-carboxamide]	7	> 25
Cn1cc2c(c1C(=O)Nc1ccc(F)c(F)c1)OC[C@H](C(O)C1CC1)NS2(=O)=O (stereo partly drawn) [Compound 105a, (3R)-3-[cyclopropyl(hydroxy)methyl]-N-(3,4-difluorophenyl)-7-methyl-1,1-dioxo-3,4-dihydro-2H-pyrrolo[3,4-b][1,4,5]oxathiazepine-6-carboxamide]	7	> 25
CC(C)C1CCc2c(cn(C)c2C(=O)Nc2ccnc(C(F)F)c2)S(=O)(=O)N1 (stereo not shown) [Compound 108, N-[2-(difluoromethyl)-4-pyridyl]-3-isopropyl-7-methyl-1,1-dioxo-2,3,4,5-tetrahydropyrrolo[3,4-f]thiazepine-6-carboxamide]	16	> 25
Cc1cc(NC(=O)c2c3c(cn2C)S(=O)(=O)NC(C(C)C)CC3)ccc1F (stereo not shown) [Compound 109, N-(4-fluoro-3-methyl-phenyl)-3-isopropyl-7-methyl-1,1-dioxo-2,3,4,5-tetrahydropyrrolo[3,4-f]thiazepine-6-carboxamide]	3	> 25
CN(C)CC1COc2c(cn(C)c2C(=O)Nc2ccc(F)c(F)c2)S(=O)(=O)N1 (stereo not shown) [Compound 110, N-(3,4-difluorophenyl)-3-(dimethylaminomethyl)-7-methyl-1,1-dioxo-3,4-dihydro-2H-pyrrolo[3,4-b][1,4,5]oxathiazepine-6-carboxamide]	200	> 25
C[C@H](O)[C@H]1CCc2c(cn(C)c2C(=O)Nc2ccnc(Br)c2)S(=O)(=O)N1 [Compound 111, (3R)—N-(2-bromo-4-pyridyl)-3-[(1S)-1-hydroxyethyl]-7-methyl-1,1-dioxo-2,3,4,5-tetrahydropyrrolo[3,4-f]thiazepine-6-carboxamide]	89	> 25
Cn1cc2c(c1C(=O)Nc1ccc(F)c(C(F)F)c1)OC[C@H](C(O)C1CC1)NS2(=O)=O (stereo partly drawn) [Compound 115a, (3R)-3-[cyclopropyl(hydroxy)methyl]-N-[3-(difluoromethyl)-4-fluoro-phenyl]-7-methyl-1,1-dioxo-3,4-dihydro-2H-pyrrolo[3,4-b][1,4,5]oxathiazepine-6-carboxamide]	8	> 25
Cn1cc2c(c1C(=O)Nc1ccc(F)c(C#N)c1)CCC(C(C)(O)C(F)(F)F)NS2(=O)=O (stereo not shown) [Compound 117, N-(3-cyano-4-fluoro-phenyl)-7-methyl-1,1-dioxo-3-(2,2,2-trifluoro-1-hydroxy-1-methyl-ethyl)-2,3,4,5-tetrahydropyrrolo[3,4-f]thiazepine-6-carboxamide]	10	> 25
Cn1cc2c(c1C(=O)Nc1ccc(F)c(C#N)c1)CCC(C(C)(F)F)NS2(=O)=O (stereo not shown) [Compound 118, N-(3-cyano-4-fluoro-phenyl)-3-(1,1-difluoroethyl)-7-methyl-1,1-dioxo-2,3,4,5-tetrahydropyrrolo[3,4-f]thiazepine-6-carboxamide]	13	> 25
